Source: the OligoGym collection
HELM strings list units from the 5' end as sugar, base in round brackets, then linkage (d deoxyribose, r ribose, m 2'-O-methyl, p phosphodiester). Strings are as the collection lists them; they lack the last nucleoside at the 3' end of the tested compound. [moe] = 2'-O-(2-methoxyethyl) (MOE); [sp] = phosphorothioate linkage; [m5C] = 5-methylcytosine

Molecular target: GFAP
Experiment: mouse, dose not given
Conditions: ASO

“RNA1{[moe](T)[sp].[moe](G)p.[moe](A)p.[moe](G)p.[moe](T)[sp].d(T)[sp].d(T)[sp].d([m5C])[sp].d(T)[sp].d(T)[sp].d(G)[sp].d(T)[sp].d(T)[sp].d(A)[sp].d(G)[sp].[moe](T)p.[moe](T)p.[moe](G)[sp].[moe](G)}$$$$ (last 3' nucleoside missing)” showed a 3 h FOB score of 6 score 0-7.
Work on “RNA1{[moe](T)[sp].[moe](T)p.[moe](T)p.[moe](G)p.[moe](G)p.[moe]([m5C])p.d(A)[sp].d(G)[sp].d(T)[sp].d(A)[sp].d(T)[sp].d(T)[sp].d(A)[sp].d([m5C])[sp].d([m5C])[sp].d(T)[sp].[moe]([m5C])p.[moe](T)[sp].[moe](A)}$$$$ (last 3' nucleoside missing)” yielded a 3 h FOB score of 0 score 0-7.
In the case of “RNA1{[moe]([m5C])[sp].[moe](A)p.[moe]([m5C])p.[moe](A)p.d(T)[sp].d(T)[sp].d([m5C])[sp].d(A)[sp].d([m5C])[sp].d(T)[sp].d(A)[sp].d(A)[sp].d(T)[sp].d(A)[sp].[moe](T)p.[moe](T)p.[moe](T)p.[moe](A)[sp].[moe](A)}$$$$ (last 3' nucleoside missing)”, the 3 h FOB score is reported as 0 score 0-7.
Work on “RNA1{[moe](G)[sp].[moe](T)p.[moe]([m5C])p.[moe](A)p.d([m5C])[sp].d(A)[sp].d(T)[sp].d(T)[sp].d([m5C])[sp].d(A)[sp].d([m5C])[sp].d(T)[sp].d(A)[sp].d(A)[sp].[moe](T)p.[moe](A)p.[moe](T)p.[moe](T)[sp].[moe](T)}$$$$ (last 3' nucleoside missing)” yielded a 3 h FOB score of 0 score 0-7.
For “RNA1{[moe](A)[sp].[moe](A)p.[moe](A)p.[moe](G)p.[moe](G)p.[moe]([m5C])p.d(A)[sp].d([m5C])[sp].d(A)[sp].d(G)[sp].d(T)[sp].d(T)[sp].d([m5C])[sp].d([m5C])[sp].d([m5C])[sp].d(A)[sp].[moe](G)p.[moe](A)[sp].[moe](T)}$$$$ (last 3' nucleoside missing)”, the 3 h FOB score was 2 score 0-7.
With “RNA1{[moe](A)[sp].[moe](G)p.[moe](A)p.[moe](G)p.[moe](T)[sp].d(G)[sp].d(T)[sp].d(G)[sp].d(T)[sp].d(A)[sp].d(T)[sp].d(T)[sp].d(A)[sp].d(G)[sp].d(G)[sp].[moe](A)p.[moe](T)p.[moe]([m5C])[sp].[moe]([m5C])}$$$$ (last 3' nucleoside missing)” the 3 h FOB score was 5 score 0-7.
In the case of “RNA1{[moe](T)[sp].[moe](G)p.[moe](T)p.[moe](G)p.[moe](A)[sp].d(T)[sp].d(T)[sp].d(T)[sp].d(T)[sp].d([m5C])[sp].d([m5C])[sp].d([m5C])[sp].d([m5C])[sp].[moe](G)p.[moe](T)p.[moe]([m5C])[sp].[moe](T)}$$$$ (last 3' nucleoside missing)”, the 3 h FOB score is reported as 0 score 0-7.
With “RNA1{[moe](T)[sp].[moe]([m5C])p.[moe](A)p.[moe]([m5C])p.[moe](A)[sp].d(T)[sp].d(T)[sp].d([m5C])[sp].d(A)[sp].d([m5C])[sp].d(T)[sp].d(A)[sp].d(A)[sp].[moe](T)p.[moe](A)p.[moe](T)[sp].[moe](T)}$$$$ (last 3' nucleoside missing)” the 3 h FOB score was 0 score 0-7.
With “RNA1{[moe](A)[sp].[moe](G)p.[moe]([m5C])p.[moe](A)p.[moe](T)p.[moe](T)p.d(T)[sp].d(G)[sp].d(T)[sp].d([m5C])[sp].d(T)[sp].d(T)[sp].d(T)[sp].d(A)[sp].d(T)[sp].d(T)[sp].[moe](T)p.[moe](T)[sp].[moe](T)}$$$$ (last 3' nucleoside missing)” the 3 h FOB score was 1 score 0-7.
For “RNA1{[moe](G)[sp].[moe]([m5C])p.[moe](T)p.[moe](T)p.[moe](T)p.d(T)[sp].d(G)[sp].d([m5C])[sp].d([m5C])[sp].d([m5C])[sp].d([m5C])[sp].d([m5C])[sp].d(T)[sp].d(G)[sp].d(T)[sp].[moe](A)p.[moe](G)p.[moe](T)[sp].[moe](G)}$$$$ (last 3' nucleoside missing)”, the 3 h FOB score was 4 score 0-7.
Work on “RNA1{[moe](T)[sp].[moe](G)p.[moe](G)p.[moe]([m5C])p.d(A)[sp].d(G)[sp].d(T)[sp].d(A)[sp].d(T)[sp].d(T)[sp].d(A)[sp].d([m5C])[sp].d([m5C])[sp].d(T)[sp].[moe]([m5C])p.[moe](T)p.[moe](A)p.[moe]([m5C])[sp].[moe](T)}$$$$ (last 3' nucleoside missing)” yielded a 3 h FOB score of 1 score 0-7.
“RNA1{[moe]([m5C])[sp].[moe](G)p.[moe](G)p.[moe]([m5C])p.[moe](T)[sp].d([m5C])[sp].d(T)[sp].d([m5C])[sp].d(T)[sp].d([m5C])[sp].d(A)[sp].d(T)[sp].d([m5C])[sp].d(T)[sp].d(G)[sp].[moe](T)p.[moe]([m5C])p.[moe](A)[sp].[moe](A)}$$$$ (last 3' nucleoside missing)” gave a 3 h FOB score of 2 score 0-7.
“RNA1{[moe](G)[sp].[moe]([m5C])p.[moe](G)p.[moe](A)p.[moe](G)[sp].d([m5C])[sp].d(G)[sp].d(G)[sp].d(A)[sp].d(G)[sp].d(G)[sp].d([m5C])[sp].d([m5C])[sp].d(T)[sp].d(G)[sp].[moe](G)p.[moe](G)p.[moe](T)[sp].[moe](G)}$$$$ (last 3' nucleoside missing)” was tested, and the 3 h FOB score was 6 score 0-7.
Substance “RNA1{[moe]([m5C])[sp].[moe](T)p.[moe]([m5C])p.[moe](T)p.[moe](G)p.d([m5C])[sp].d([m5C])[sp].d(A)[sp].d(T)[sp].d(T)[sp].d(T)[sp].d(A)[sp].d(T)[sp].d([m5C])[sp].d(T)[sp].[moe](G)p.[moe](T)p.[moe](G)[sp].[moe]([m5C])}$$$$ (last 3' nucleoside missing)” has a 3 h FOB score of 0 score 0-7.
“RNA1{[moe](G)[sp].[moe]([m5C])p.[moe](G)p.[moe](A)p.[moe](T)[sp].d(G)[sp].d(G)[sp].d(A)[sp].d(G)[sp].d([m5C])[sp].d([m5C])[sp].d(T)[sp].d([m5C])[sp].d(A)[sp].d(G)[sp].[moe](G)p.[moe](G)p.[moe](A)[sp].[moe](T)}$$$$ (last 3' nucleoside missing)” showed a 3 h FOB score of 7 score 0-7.
“RNA1{[moe](A)[sp].[moe](G)p.[moe](A)p.[moe](T)p.[moe](A)[sp].d(T)[sp].d([m5C])[sp].d(T)[sp].d(T)[sp].d(G)[sp].d(T)[sp].d(G)[sp].d(A)[sp].d([m5C])[sp].d([m5C])[sp].[moe](T)p.[moe](T)p.[moe](G)[sp].[moe](T)}$$$$ (last 3' nucleoside missing)” showed a 3 h FOB score of 6 score 0-7.
“RNA1{[moe](G)[sp].[moe]([m5C])p.[moe](T)p.[moe](T)p.[moe](T)p.[moe](T)p.d(G)[sp].d([m5C])[sp].d([m5C])[sp].d([m5C])[sp].d([m5C])[sp].d([m5C])[sp].d(T)[sp].d(G)[sp].d(T)[sp].d(A)[sp].[moe](G)p.[moe](T)[sp].[moe](G)}$$$$ (last 3' nucleoside missing)” gave a 3 h FOB score of 3 score 0-7.
With “RNA1{[moe]([m5C])[sp].[moe](G)p.[moe](T)p.[moe](A)p.[moe](T)[sp].d(T)[sp].d(G)[sp].d(T)[sp].d(G)[sp].d(A)[sp].d(G)[sp].d(G)[sp].d([m5C])[sp].d(T)[sp].d(T)[sp].[moe](T)p.[moe](T)p.[moe](G)[sp].[moe](A)}$$$$ (last 3' nucleoside missing)” the 3 h FOB score was 7 score 0-7.
For “RNA1{[moe](T)[sp].[moe](G)p.[moe](G)p.[moe]([m5C])p.[moe](A)[sp].d(A)[sp].d([m5C])[sp].d(A)[sp].d(G)[sp].d(T)[sp].d(T)[sp].d(T)[sp].d([m5C])[sp].d([m5C])[sp].d(A)[sp].[moe](T)p.[moe](A)p.[moe](A)[sp].[moe]([m5C])}$$$$ (last 3' nucleoside missing)”, the 3 h FOB score was 1 score 0-7.
“RNA1{[moe](A)[sp].[moe](G)p.[moe]([m5C])p.[moe](A)p.[moe](T)[sp].d(T)[sp].d(T)[sp].d(G)[sp].d(T)[sp].d([m5C])[sp].d(T)[sp].d(T)[sp].d(T)[sp].d(A)[sp].d(T)[sp].[moe](T)p.[moe](T)p.[moe](T)[sp].[moe](T)}$$$$ (last 3' nucleoside missing)” was tested, and the 3 h FOB score was 1 score 0-7.
“RNA1{[moe](G)[sp].[moe](T)p.[moe]([m5C])p.[moe](A)p.[moe](G)p.[moe]([m5C])p.d([m5C])[sp].d(T)[sp].d(G)[sp].d(G)[sp].d(T)[sp].d(T)[sp].d(A)[sp].d(G)[sp].d([m5C])[sp].d([m5C])[sp].[moe](T)p.[moe](T)[sp].[moe](T)}$$$$ (last 3' nucleoside missing)” gave a 3 h FOB score of 4 score 0-7.
With “RNA1{[moe](A)[sp].[moe](G)p.[moe](T)p.[moe]([m5C])p.d(A)[sp].d(G)[sp].d([m5C])[sp].d([m5C])[sp].d(T)[sp].d(G)[sp].d(G)[sp].d(T)[sp].d(T)[sp].d(A)[sp].[moe](G)p.[moe]([m5C])p.[moe]([m5C])p.[moe](T)[sp].[moe](T)}$$$$ (last 3' nucleoside missing)” the 3 h FOB score was 3 score 0-7.
Substance “RNA1{[moe](T)[sp].[moe](G)p.[moe](A)p.[moe](G)p.[moe](G)[sp].d([m5C])[sp].d(T)[sp].d(T)[sp].d(T)[sp].d(T)[sp].d(G)[sp].d(A)[sp].d(G)[sp].d(A)[sp].d(T)[sp].[moe](A)p.[moe](T)p.[moe]([m5C])[sp].[moe](T)}$$$$ (last 3' nucleoside missing)” has a 3 h FOB score of 3 score 0-7.
With “RNA1{[moe]([m5C])[sp].[moe](T)p.[moe]([m5C])p.[moe]([m5C])p.[moe](T)[sp].d(G)[sp].d(T)[sp].d(T)[sp].d(T)[sp].d([m5C])[sp].d(A)[sp].d(G)[sp].d([m5C])[sp].d(A)[sp].d(T)[sp].[moe]([m5C])p.[moe](T)p.[moe](T)[sp].[moe]([m5C])}$$$$ (last 3' nucleoside missing)” the 3 h FOB score was 2 score 0-7.
In the case of “RNA1{[moe](T)[sp].[moe](G)p.[moe](T)p.[moe](G)p.[moe]([m5C])[sp].d(T)[sp].d(T)[sp].d(T)[sp].d(A)[sp].d(G)[sp].d(T)[sp].d(G)[sp].d(A)[sp].d([m5C])[sp].d([m5C])[sp].[moe](T)p.[moe](G)p.[moe](T)[sp].[moe](G)}$$$$ (last 3' nucleoside missing)”, the 3 h FOB score is reported as 5 score 0-7.
With “RNA1{[moe]([m5C])[sp].[moe](A)p.[moe]([m5C])p.[moe](A)p.[moe](T)p.d(T)[sp].d([m5C])[sp].d(A)[sp].d([m5C])[sp].d(T)[sp].d(A)[sp].d(A)[sp].d(T)[sp].d(A)[sp].d(T)[sp].[moe](T)p.[moe](T)p.[moe](A)[sp].[moe](A)}$$$$ (last 3' nucleoside missing)” the 3 h FOB score was 0 score 0-7.
